In ChEMBL document CHEMBL4418912, “Methods of identifying antagonists of the hTAS2R46 bitter taste receptor” (2014):
Activity calls are given as the source filed them. No cut-off for these calls is given here.

Molecular target: T1, Taste receptor type 2 member 39 (Homo sapiens) (UniProt P59534)
T1 sequence (whole entry): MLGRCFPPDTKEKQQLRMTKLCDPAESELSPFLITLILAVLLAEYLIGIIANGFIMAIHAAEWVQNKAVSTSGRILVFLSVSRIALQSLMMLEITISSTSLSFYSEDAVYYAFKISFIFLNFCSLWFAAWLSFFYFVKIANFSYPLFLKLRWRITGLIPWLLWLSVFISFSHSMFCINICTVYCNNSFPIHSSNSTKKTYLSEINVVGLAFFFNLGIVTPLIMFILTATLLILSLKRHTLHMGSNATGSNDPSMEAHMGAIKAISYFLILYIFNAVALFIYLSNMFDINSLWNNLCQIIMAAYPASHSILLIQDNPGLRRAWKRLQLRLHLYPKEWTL
Test: Agonist activity at recombinant human N-terminal rat ST3 receptor-fused TAS2R39 expressed in HEK293T cells co-expressing Galpha16gust44 assessed as increase in intracellular calcium level at 100 uM by FLIPR assay
Format: functional, cell-based

## C/C1=C\C[C@H](O)/C(C)=C/[C@H]2OC(=O)[C@@H](C)[C@@H]2CC1
  Activity: inactive
